Test results as given in patent US20070264680A1, “Method and Test-Kit for the Detection and Quantification of Organisms” (PROTEUS S.A., priority 2004, published 2007).

Legend:
[1] = system: benchmark bacterial strain having an esterase activity; test: Microbial decontamination efficiency of cleaning substances on contaminated plastic surfaces (esterase activity of swab); assay type: cell-based; conditions: remaining esterase activity after cleaning the plastic surface with an impregnated wipe; optical density at 414 nm; not cleaned: 3.474
Experimental: For this purpose, a benchmark bacterial strain having an esterase activity (isolated by traditional microbiological methods from samples collected from human foreheads) has been used to artificially contaminated surfaces. This strain has been prepared by an overnight incubation at 37° C. in LB medium. 200 μL of this cell preparation, corresponding to 6.107 cfu have been spread on five plastic surfaces and allowed to dry completely.
Samples have then been collected onto the different plastic surfaces using swabs beforehand impregnated with PBS containing 0.1% w/v of Triton X100. 16 μL of the transformable substrate (2-hydroxy-4-p-nitrophenoxy-butyl hexanoate 20 mM in DMSO) have been mixed with 184 μL of aqueous PBS buffer 0.1M pH7.3. The swab has been plunged in this mix and incubated for 1 h at 37° C. The swab has then been removed from the reaction mixture and 100 μL have been transferred to another vial. 4 μL of bovine serum albumin 50 mg/mL in water, 40 μL NaIO4 100 mM in water and 40 μL Na2CO3 200 mM in water have been added. The reaction mixture has been incubated for 10 min at room temperature and centrifuged for 15 min at 16000 g. The activity has then been quantified by measuring optical density at 414 nm.

[2] = system: Staphylococcus epidermidis (DSM 3269); conditions: 0.3% in CSL, 30° C., reduction from 10^7, 24 h
Experimental: (§1) An EuAB test for antimicrobial activity was performed with Corynebacterium xerosis (DSM 20743), Staphylococcus epidermidis (DSM 3269) and Candida albicans (ATCC 10231). As culture medium CSL (Casein peptone-soybean meal peptone solution), CSA (Casein peptone-soybean meal pepton agar) and Sabouraud-glucose broth/agar was used.
(§2) As dilution liquid NaCl-peptone buffer solution with inactivator (3% Tween 80, 0.3% lecithin, 0.1% histidine and 0.5% Na thiosulfate) was used. Polyglyceryl-3 caprylate was tested in 0.3% (in CSL) concentration. The test solution was prepared one day before investigation. For this, 100 ml of CSL was heated to 60° C. in a water bath. 0.3 g was weighed into 100 ml of CSL at 60° C. The preparations were shaken vigorously by hand and left overnight at 30° C. in an incubator. Corynebacterium xerosis was cultivated over 3 to 4 days. Other microbes were isolated in broth or by elutriation. For each test microbe, 20 ml of each test solution were introduced into sterile 50 ml brown glass bottles with glass beads and contaminated with 0.2 ml of microbe suspension. As controls, 20 ml of CSL were carried over per test microbe without sample.
(§3) The contaminated samples were shaken for 3 min on a shaking machine and kept in an incubator at 30° C. until removed. At the removal points (1, 2, 3, 24 and 48 hours) 1 ml was taken from each preparation and transferred in each case to 9 ml of NaCl-peptone buffer solution with inactivator and the colony number was determined. The 0 hour values given were the colony numbers of the test microbe suspension used taking into consideration the 10^−2 dilution upon sample contamination.

[3] = system: Candida albicans (ATCC 10231); conditions: 0.3% in CSL, 30° C., reduction from 10^7, 24 h
Experimental: as §1, §2, §3

[4] = system: Corynebacterium xerosis (DSM 20743); conditions: 0.3% in CSL, 30° C., reduction from 10^7, 24 h
Experimental: as §1, §2, §3

| Molecule | activity [1] | bacteria count (colony number) after 24 h [2] | bacteria count (colony number) after 24 h [3] | bacteria count (colony number) after 24 h [4] |
| --- | --- | --- | --- | --- |
| CCO [70% ethanol, ethanol] | 0.195 |  |  |  |
| O [water] | 0.100 |  |  |  |
| polyglyceryl-3 caprylate |  | less than 270 | less than 270 | less than 270 |
